Experimental data: ChEMBL document CHEMBL5727027, “Compounds useful as CCR9 modulators” (2018)

Target: T1, C-C chemokine receptor type 9 (Homo sapiens, UniProt P51686)
T1 sequence (P51686 whole entry): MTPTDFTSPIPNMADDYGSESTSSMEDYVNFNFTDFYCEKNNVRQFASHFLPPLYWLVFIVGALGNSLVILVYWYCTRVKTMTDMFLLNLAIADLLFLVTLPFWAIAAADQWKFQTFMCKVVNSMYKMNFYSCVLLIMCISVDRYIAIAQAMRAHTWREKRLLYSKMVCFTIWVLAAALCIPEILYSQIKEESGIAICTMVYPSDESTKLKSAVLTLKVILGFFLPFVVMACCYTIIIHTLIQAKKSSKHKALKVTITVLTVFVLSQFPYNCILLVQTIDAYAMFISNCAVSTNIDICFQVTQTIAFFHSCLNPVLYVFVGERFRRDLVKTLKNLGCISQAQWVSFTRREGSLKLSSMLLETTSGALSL
Assay: FLIPR Assay: A calcium flux assay was used to determine the ability of the compounds to interfere with the binding between CCR9 and its chemokine ligand (TECK) in Chem1-hCCR9 overexpressing cells. hCCR9 overexpressing cells were seeded (25,000 cells/well) into black Poly-D-Lysine coated clear bottom 96-well plates (BD Biosciences, Cat #356640) and incubated overnight at 37° C./5% CO2 in a humidified incubator. Media was aspirated and cells washed twice with 100 μL assay buffer (1×HBSS, 20 mM HEPES) containing 2.5 mM Probenecid. A 0.3× Fluo-4 NW calcium dye was prepared in assay buffer containing 5 mM Probenecid and stored in the dark. Each well was loaded with 100 μL of 0.3× Fluo-4 NW calcium dye and incubated at 37° C./5% CO2 for 60 minutes and then at room temperature for 30 minutes. A half-log serially diluted concentration response curve was prepared at a 3× final assay concentration for each compound (10 μM-0.1 nM final assay concentration) and 50 μL of the compound then transferred to the cells (150 μL final volume) for 60 minutes prior to stimulation (30 minutes at 37° C./5% CO2 and 30 minutes at room temperature). TECK was diluted to 4× its EC80 in assay buffer (containing 0.1% [w/v] bovine serum albumin [BSA]) and 50 μL dispensed through the fluorometric imaging plate reader (FLIPR) instrument to stimulate the cells (200 μL final volume). […]
Format: cell-based

Structure (SMILES): CC(C)(C)c1ccc(S(=O)(=O)Nc2ccc(C#N)c3c2C(=O)N(Cc2ccc[n+]([O-])c2)C3=O)cc1
- Ki: 84 nM
